KD data for one molecule are collected here from PMC11367644, “Structural basis for TNIP1 binding to FIP200 during mitophagy” (The Journal of Biological Chemistry, 2024).

Square brackets hold non-standard residues; d marks the D form. Peptide text beside a SMILES is read from it. pS = N[C@@H](COP(=O)(O)O)C(=O)O

In experiment [1] the target is T1, FIP200 claw domain K1568E (Homo sapiens, UniProt Q8TDY2, K1568E).
T1 construct: human FIP200 claw domain1490–1594 was cloned; SUMO (N, cleaved yes); made in house; host or cells: Escherichia coli Rosetta (DE3)
T1 sequence (Q8TDY2 1490-1594 K1568E): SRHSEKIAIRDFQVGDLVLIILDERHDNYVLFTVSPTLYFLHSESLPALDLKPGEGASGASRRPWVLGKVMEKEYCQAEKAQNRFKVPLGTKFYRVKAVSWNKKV
Briefly: ITC with FIP200 claw domain mutant K1568E. The following applies: 20 °C, buffer B pH 7.0, N.D. = no detectable binding. As for the experimental part:
(§1) DNA fragment of human FIP200 claw domain1490–1594 was cloned into a modified pET28a (Novagen) plasmid, which contained an N-terminal SUMO-tag and a ULP1 protease cleavage site. All mutants were generated using a MutanBEST Kit (TaKaRa) and confirmed by DNA sequencing. The proteins were expressed in Escherichia coli Rosetta (DE3) cells (Novagen) cultured in LB medium at 37 °C to A600 = 1.0 and then shifted to 16 °C for 24 h after induction with 0.2 mM IPTG. Bacterial pellets were resuspended in buffer A (50 mM NaH2PO4 and 1 M NaCl, pH 7.0) and lysed by sonication. The crude lysate was then centrifuged at 14,000 rpm for 30 min at 4 °C. The supernatant was applied to a Ni-NTA column (QIAGEN), followed by size-exclusion chromatography using a Superdex 200 (GE Healthcare) column. After cleavage with ULP1 protease overnight at 16 °C to remove the SUMO-tag, an additional purification step was performed with a HiTrap SP FF column. The purified protein was concentrated to ∼20 mg/ml in buffer B (50 mM NaH2PO4, 150 mM NaCl, pH 7.0) and stored at −80 °C.
(§2) ITC assays were performed on a Microcal PEAQ-ITC instrument (Malvern) at 20 °C. The concentrations of proteins were determined spectrophotometrically. […] Thermodynamic data were analyzed with a single binding site model using MicroCal PEAQ-ITC Analysis Software provided by the manufacturer (Malvern).

For experiment [2], the target named is T2, FIP200 claw domain K1569A (Homo sapiens, UniProt Q8TDY2, K1569A).
T2 construct: human FIP200 claw domain1490–1594 was cloned; SUMO (N, cleaved yes); made in house; host or cells: Escherichia coli Rosetta (DE3)
T2 sequence (Q8TDY2 1490-1594 K1569A): as the sequence (Q8TDY2 1490-1594 K1568E) above, with E79K, K80A counted along it
The experiment is described as follows: ITC with FIP200 claw domain mutant K1569A. Conditions: 20 °C, buffer B pH 7.0, N.D. = no detectable binding. As for the experimental part: as §1, §2

Consider `CC(C)[C@H](NC(=O)[C@H](CCC(=O)O)NC(=O)[C@H](Cc1ccccc1)NC(=O)[C@H](CCC(=O)O)NC(=O)[C@H](COP(=O)(O)O)NC(=O)[C@H](CO)NC(=O)[C@@H](NC(=O)CNC(=O)[C@H](CO)NC(=O)[C@@H](N)CO)[C@@H](C)O)C(=O)N[C@H](C(=O)N[C@H](C(=O)N1CCC[C@H]1C(=O)N[C@@H](CCC(=O)O)C(=O)N[C@@H](CCC(=O)O)C(=O)N[C@@H](CCC(N)=O)C(=O)O)[C@@H](C)O)C(C)C` [TNIP1_pS123^ long] (H-SSGTS[pS]EFEVVTPEEQ-OH), for which the KD result in experiment [1] and in experiment [2] was “Weak binding” each time.
